For orientation: IC50 means the midpoint of a concentration-inhibition curve.

From patent US6265437A, “Aminoalkanesulphonic acid derivatives, their preparation and their use as medicaments” (LIPHA, priority 2000, dated 2001) come the findings set out here.

The nature of this assay: displacement of tritiated calcium acetylhomotaurinate from a preparation of rat brain section. It is filed as binding. The note with it: in vitro, displacement of titiated calcium acetylhomotaurinate. The source says:
In in vitro tests, it has furthermore been shown that these compounds have the ability to displace titiated calcium acetylhomotaurinate from a preparation of rat brain section.

As for `CC(C)(C)C(=O)NCCCS(=O)(=O)O` [Example 1, calcium 3-(2-2-(dimethyl)propanoylamino)propanesulphonate], the half-inhibitory concentration (IC50) came out at 46.9 µM. For `CC(C)C(=O)NCCCS(=O)(=O)O` [Example 3, magnesium 3-(2-(methyl)propanoylamino)propanesulphonate] the value was 28.9 µM.

Consider `CC(C)CC(=O)NCCCS(=O)(=O)O` [Example 14, magnesium 3-(3-(methyl)butanoylamino)propanesulphonate], for which the IC50 amounted to 42 µM. Consider `CC(C)(C)C(=O)NCCCS(=O)(=O)O` [Example 15, magnesium 3-(2,2-(dimethyl)propanoylamino)propanesulphonate], for which the concentration for half-maximal inhibition (IC50) was found to be 49.5 µM. For `CC(=O)NC(C)CCS(=O)(=O)O` (centres unmarked) [Example 17, calcium 3-(acetylamino)-3-methylpropanesulphonate] the value was 93 µM.
